Assay results published in the supplement of paper PMC10307832.

Compound: CCn1c(-c2nonc2N)nc2c(C#CC(C)(C)O)ncc(OC[C@H]3CCCNC3)c21 + Cc1cc(Nc2cc(N3CCN(C)CC3)nc(Sc3ccc(NC(=O)C4CC4)cc3)n2)n[nH]1 [Tozasertib] (partner 0.1 µM)
Assay: relative viability (nuclei count vs DMSO), 5 days (fraction); higher = more cells survive
Conditions: first compound 0.01 µM
In short: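 Relative viability was taken as the ratio of nuclei in treated wells to nuclei in vehicle wells. Lung cancer cell lines in 1536-well plates received compounds by pin tool one day after seeding, either one drug alone or a fixed anchor-drug dose plus five library-drug doses (not always all listed) in √10 steps. Nuclei were counted on 4× images after 5 days of treatment, and values are medians of duplicate plates.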

Cell Line | relative viability
NCI-H1915 | 0.439
HCC-827 | 0.391
LXF-289 | 0.218
NCI-H23 | 0.398
NCI-H647 | 0.26
CAL-12T | 0.351
NCI-H1651 | 0.633
EPLC-272H | 0.337
NCI-H2228 | 0.222
NCI-H1355 | 0.572
NCI-H3122 | 0.369
NCI-H1437 | 0.38
NCI-H1755 | 0.617
NCI-H2023 | 0.339
HCC-15 | 0.393
NCI-H1793 | 0.361
PC-14 | 0.587
EKVX | 0.341
LC-2-ad | 0.457
NCI-H1944 | 0.287
NCI-H1975 | 0.768
RERF-LC-KJ | 0.441
ABC-1 | 0.167
NCI-H358 | 0.0952
NCI-H650 | 0.724
PC-3 [JPC-3] | 0.847

Same assay, conditions: first compound 0.03162 µM

Cell Line | relative viability
NCI-H441 | 0.53
NCI-H661 | 0.343
NCI-H1734 | 0.258
NCI-H460 | 0.542
NCI-H2347 | 0.59
SK-LU-1 | 0.387
NCI-H1395 | 0.763
201T | 0.948
NCI-H1915 | 0.424
HCC-827 | 0.47
LXF-289 | 0.194
NCI-H23 | 0.438
NCI-H647 | 0.326
CAL-12T | 0.354
NCI-H1651 | 0.624
EPLC-272H | 0.512
NCI-H2228 | 0.278

Cell Line | relative viability
NCI-H1355 | 0.629
NCI-H3122 | 0.405
NCI-H1437 | 0.461
NCI-H1755 | 0.498
NCI-H2023 | 0.379
HCC-15 | 0.439
NCI-H1793 | 0.421
PC-14 | 0.63
EKVX | 0.37
LC-2-ad | 0.442
NCI-H1944 | 0.247
NCI-H1975 | 0.715
RERF-LC-KJ | 0.516
ABC-1 | 0.169
NCI-H358 | 0.0863
NCI-H650 | 0.746
PC-3 [JPC-3] | 0.943

Same assay, conditions: first compound 0.1 µM

Cell Line | relative viability
NCI-H441 | 0.538
NCI-H661 | 0.354
NCI-H1734 | 0.285
NCI-H460 | 0.447
SK-LU-1 | 0.349
NCI-H1395 | 0.736
201T | 0.914
NCI-H1915 | 0.422
HCC-827 | 0.383
LXF-289 | 0.169
NCI-H23 | 0.568
